# Reference: US6645965B1, “Nitrate salts of antihypertensive medicines” (priority 1998, dated 2003)
# What was measured:
# [1] = tested on: arterial hypertension induced by L-NAME; experiment: Arterial hypertension induced by L-NAME, systemic arterial pressure by caudal way; format: in vivo, rat; settings: Carrier 170 ± 7
# Protocol: The inhibiting effect of Losartan nitrate on the arterial hypertension has been assayed by using two experimental models: the arterial hypertension induced by L-NAME (see the preceding example) and the muscular contraction produced by Angiotensin II. In the first experiment Wistar adult male rats (235-284 g) received for 6 weeks drinking water containing L-NAME. at a 60-70 mg/100 ml concentration, equivalent to a daily dose of about 60 mg/Kg. […] One hour after the last treatment, the systemic arterial pressure was determined by caudal way, as described by Zatz, Lab. Anim. Sci., 42, 198, 1990. […] In the second experiment the method described by Taylor (see Example 10) has been followed as described before. The prostatic part of the isolated deferent duct of rats (200-220 g) was removed and dipped in a physiologic solution at 37° C. and then contracted by transmural stimulation (95% of the maximum stimulation, 0.2 Hz).
# [2] = tested on: muscular contraction produced by Angiotensin II (isolated ileum); experiment: Contraction of isolated guinea pig ileum produced by Angiotensin II; settings: Angiotensin II 10 mcg/ml, compound 10^−6M, Carrier = 100
# Description: In the second experiment (contraction produced by Angiotensin II), the method described by P. C. Wong et al., Hypertension, 13, 489-497, 1989 has been followed.
# [3] = tested on: prostatic part of the isolated deferent duct contracted by transmural stimulation; experiment: Vascular contraction of isolated rat deferent duct induced by electric stimulation; settings: compound 10^−6 M, within 5 minutes, Carrier = 100
# Description: The inhibiting effect of Minoxidil nitrate on the arterial hypertension has been determined by using two experimental models: the arterial hypertension induced by L-NAME (see Example 10) and the vascular contraction induced by electric stimulation. In the first pharmacological experiment the rats have been treated as described in the pharmacological experiment with L-NAME of Example 11. In the second experiment the method described by Taylor (see Example 10) has been followed as described before. The prostatic part of the isolated deferent duct of rats (200-220 g) was removed and dipped in a physiologic solution at 37° C. and then contracted by transmural stimulation (95% of the maximum stimulation, 0.2 Hz).
# The vasorelaxing activity is expressed as the reduction of the contractive neurogenic response, determined within 5 minutes from the. addition of the tested compound at a 10^−6 M concentration.
# [4] = tested on: ileal contraction caused by calcium chloride; experiment: Ileal contraction caused by calcium chloride (calcium antagonist activity); settings: guinea pig ileum, calcium chloride 20 mcg/ml, compound 10^−6 M; Carrier = 100
# Protocol: In the latter, the experimental model adapted was that of the ileal contraction caused by calcium chloride, according to the method described by M. J. Spedding, J. Pharmacology 83, 211-220, 1984. Ileus segments taken from guinea pig (300-350 g) were maintained at 37° C. in a physiologic solution not containing calcium ions and then stimulated by calcium chloride addition (final concentration 20 mcg/ml). The calcium antagonist activity was determined as the reduction of the ileal contraction following addition of each of the test compounds at a concentration 10^−6 M.
# [5] = tested on: bronchoconstriction induced in guinea pigs by the Capsaicin injection; experiment: Experimental bronchoconstriction induced by Capsaicin injection (tidal air variation, Konzett apparatus); format: in vivo, guinea pig
# Protocol: The compounds at a dose of 10 mg/kg and the corresponding carrier have been administered to the guinea pigs (groups of 6 animals each) by intraperitoneal route for three consecutive days. The animals were prepared according to the method of Del Soldato et al. J. Pharmacol. Methods 5 279 1981. 45 minutes later 0.1 ml of a Capsaicin saline solution (1 μg/Kg) was injected to the animals intravenously. The tidal air variation before and after the Capsaicin administration was measured by a Konzett apparatus, modified as described in the above mentioned reference, connected to a polygraphic system. The effects of the compounds and of their corresponding nitrate salts on the experimental bronchoconstriction induced in guinea pigs by the Capsaicin injection are reported in Table 1.
# [6] = tested on: isolated human cavernous artery; experiment: Relaxation of isolated human cavernous artery pre-contracted with adrenaline; settings: 10^−6 M; adrenaline 3.10^−6 M
# Description: (§1) The relaxation effect of the cavernous artery and of the human cavernosum corpora (vasodilating effect at a peripheric level) was also studied. It was used the technique described by R. G. Hempelmann et al., European Journal of Pharmacology 276, 277-280 (1995), employing erectile tissues coming from patients submitted to surgical operation. The cavernous arteries have been isolated and cleaned up from the surrounding connective tissue. Segments of about 2 mm length were obtained and were mounted in a myograph equipment.
# (§2) After having drawn an experimental curve diameter/tension, the specimens have been adjusted to a diameter corresponding to 90% of the one reached in the presence of a transluminal pressure of 100 mm Hg; after a stabilization period of about 60 minutes, contraction was effected by adrenaline 3.10^−6 M. After 15 minutes a dose corresponding to 10^−6 M of each of the tested compounds was added and the relaxation percentage was recorded.
# [7] = tested on: isolated human cavernous tissue; experiment: Relaxation of isolated human cavernous tissue strips precontracted with adrenaline; settings: 10^−6 M; adrenaline 3.10^−6 M
# Description: as §1, §2
# A second series of experiments has been carried out according to the same protocol, on the isolated strips, 3×3×5 mm, of cavernous tissue, isometrically suspended in baths for isolated organs, under a 5-10 mN tension.
# [8] = tested on: prostatic part of the deferent vessel contracted by transmural stimulation; experiment: Prostatic deferent vessel constriction induced by submaximum electric stimulation, rats treated with L-NAME; design: species or system rat; settings: 10 mg/kg s.c. daily for five days, tested substance 10^−6 M, within 5 minutes, Carrier = 100
# Protocol: The compounds have been administered in physiological solution. The control group has been treated with the carrier (physiologic solution) only. The vaso-relaxing activity of Sildenafil nitrate was determined by using the experimental model of the prostatic deferent vessels constriction, induced by submaximum electric stimulation (D. A. Taylor et al., J. Pharmacol. Exp. Ther. 224, 40-45 1983), in rats treated with N^w-nitro-L-arginine methyl ester (L-NAME) as described by Ribeiro et al., Hypertension, 20, 298, 1992. […] […] One hour after the last treatment,. the animals were sacrificed and the prostatic part of the deferent vessel was removed, dipped in a physiologic solution at 37° C., and contracted by transmural stimulation (95% of the maximum stimulation, 0.2 Hz). The reduction of the neurogenic contractive response, which results within 5 minutes from the addition of the tested substance at a concentration of 10^−6 M, is taken as a measure of the vasorelaxing activity.
# [9] = tested on: left atrium specimens stimulated by Isoprenaline; experiment: Inotropic-positive effect caused by Isoprenaline in guinea pig left atrium (beta-adrenolytic activity); settings: Isoprenaline 10 mcg/ml, compound 10^−6M, Carrier = 100
# Protocol: In the latter experiment the method described by Grodzinski et al., Arch. Int. Phramacodyn., 191, 133-141, 1971 was followed. The left atrium specimens taken from guinea pigs (300-350 g) were maintained at 32° C. in a physiologic solution wherein the concentration of calcium ion was ⅓ lower and stimulated by Isoprenaline (10 mcg/ml). The beta-adrenolitic activity is expressed as the reduction of the inotropic-positive effect (increase of the cardiac muscle contraction) following addition of the compound under examination at a 10^−6M concentration.
# [10] = Diuretic effect in rats (urine volume over 6 hours); format: in vivo, rat; settings: 10 mg/Kg subcutaneously, urine volume over 6 hours as percentage of carrier group
# Protocol: In the latter experiment the diuretic effect was studied according to the method described by W. L. Lipschwitz et al. J. Pharmacol. Exp. Ther., 79, 97-110, 1943. No 3 groups of 6 rats (200-220 g) each, stalled in metabolic cages received drinking distilled water (25 ml/Kg p.o.). Each group was then subcutaneously injected with Amiloride nitrate (10 mg/Kg), Amiloride (10 mg/Kg) or carrier respectively. The urine volume was collected during a period of 6 hours following drug administration, measured in ml. The diuretic effect is expressed as percentage of the collected urine volume calculated on that of the group treated with the carrier.
# gastric tissue = experiment: Gastric toxicity in rats given ethanol 50% by os (gastric lesions); format: in vivo; settings: Sprague-Dawley male rats (n=10), 10 mg/Kg i.p. as free base, ethanol 50% by os 30 minutes later; Controls 50
# Protocol: 5 groups of Sprague-Dawley male rats (n=10), were fasted for 24 hours. 4 groups were then respectively treated i.p. with Sildenafil, Zaprinast, and the relevant nitrate salts of said drugs. One group was not treated and was tha control group. 30 minutes later 1 ml of ethanol 50% in water was given by os to the animals.
# One hour later the animals were sacrificed. The stomach was removed and the gastric tissue was macroscopically examined.
# The results are reported in Table X. In the Table the gastric toxicity given as % incidence is the number of rats in a group showing gastric lesions.
# [11] = Table V, L-NAME rats, 10 mg/kg s.c. daily for five days, one hour after last treatment
# [12] = Table VI, L-NAME rats treated as in Example 11
# [13] = Table VIII, L-NAME rats, model of Example 11
# [14] = guinea pigs, 10 mg/kg intraperitoneal for three consecutive days, Capsaicin 1 μg/Kg i.v., Carrier = 100
# [15] = Table VII, L-NAME rats, model of Example 11
molecule,measurement,setting,value
"CCCCc1nc(Cl)c(CO)n1Cc1ccc(-c2ccccc2-c2nn[nH]n2)cc1 [Losartan, reference compound]",Average arterial pressure (mm Hg),[1]; [11],153 ± 5 mm Hg
same,Effect on the contraction of the smooth musculature % (n = 5),[2],33%
"Nc1cc(N2CCCCC2)nc(N)[n+]1[O-] [Minoxidil, 6-(1-piperidiny-1)-2,4-pyrimidinediamine 3-oxide, reference compound]",Average arterial pressure (mm Hg),[1]; [12],132 ± 6 mm Hg
same,Effect on the vasoconstriction % (n = 5),[3],18%
"COC(=O)C1=C(C)NC(C)=C(C(=O)OCCN(C)Cc2ccccc2)C1c1cccc([N+](=O)[O-])c1 (stereo not shown) [Nicardipine, 1,4-dihydro-2,6-dimethyl-4-(3-nitrophenyl)-3,5-pyridinedicarboxylic acid methyl 2[methyl-(phenylmethyl)amino]ethyl ester, reference compound]",Average arterial pressure (mm Hg),[1]; [13],122 ± 6 mm Hg
same,Contracturing effect % (n = 5),[4],25%
"CC(C)NCC(O)COc1cccc2ccccc12 (stereo not shown) [Propranolol, reference compound]",Bronchoconstrictive effect (%),[5]; [14],280%
[NH-]c1c[n+](N2CCOCC2)no1 [SIN-1],Relaxing effect on the isolated human cavernous artery pre-contracted with adrenaline (n = 5) (relaxation %),[6],36 ± 7%
same,Relaxing effect on the isolated human cavernous tissue precontracted with adrenaline (n = 4) (relaxation %),[7],33 ± 4%
CCCc1nn(C)c2c(=O)[nH]c(-c3cc(S(=O)(=O)N4CCN(C)CC4)ccc3OCC)nc12 [Sildenafil],Effect on vasoconstriction (%),[8],68%
same,Relaxing effect on the isolated human cavernous artery pre-contracted with adrenaline (n = 5) (relaxation %),[6],25 ± 4%
same,Relaxing effect on the isolated human cavernous tissue precontracted with adrenaline (n = 4) (relaxation %),[7],42 ± 6%
"CC(C)(C)NC[C@H](O)COc1nsnc1N1CCOCC1 [Timolol, reference compound]",Bronchoconstrictive effect (%),[5]; [14],188%
same,Average arterial pressure (mm Hg),[1]; [15],144 ± 5 mm Hg
same,Inotropic positive effect % (n = 5),[9],32%
Amiloride Nitrate Salt [Amiloride.HNO3],Average arterial pressure (mm Hg),"[1]; Table IX, L-NAME rats, model of Example 11",110 ± 5 mm Hg
same,Diuretic effect % (n = 5),[10],215%
Losartan nitrate [Losartan.HNO3],Average arterial pressure (mm Hg),[1]; [11],115 ± 4 mm Hg
same,Effect on the contraction of the smooth musculature % (n = 5),[2],12%
Minoxidil nitrate [Minoxidil.HNO3],Average arterial pressure (mm Hg),[1]; [12],110 ± 6 mm Hg
same,Effect on the vasoconstriction % (n = 5),[3],5%
Nicardipine Nitrate Salt [Nicardipine.HNO3],Average arterial pressure (mm Hg),[1]; [13],108 ± 3 mm Hg
same,Contracturing effect % (n = 5),[4],8%
Propranolol nitrate salt [Propranolol.HNO3],Bronchoconstrictive effect (%),[5]; [14],110%
Sildenafil Nitrate Salt [Sildenafil.HNO3],Effect on vasoconstriction (%),[8],25%
same,Relaxing effect on the isolated human cavernous artery pre-contracted with adrenaline (n = 5) (relaxation %),[6],61 ± 3%
same,Relaxing effect on the isolated human cavernous tissue precontracted with adrenaline (n = 4) (relaxation %),[7],68 ± 7%
Timolol nitrate salt [Timolol.HNO3],Bronchoconstrictive effect (%),"[5]; guinea pig, in vivo, 10 mg/kg",94%
same,Average arterial pressure (mm Hg),[1]; [15],108 ± 8 mm Hg
same,Inotropic positive effect % (n = 5),[9],13%
Zaprinast Nitrate [Zaprinast.HNO3],Gastric toxicity (% incidence),gastric tissue,30 % incidence
